Experiment [1] relates to immortalized human sebocyte cell line, SZ95. The experiment in a line: In vitro assay of inhibition of lipid synthesis. The class given is cell-based. The following applies: 48 h, SZ95 sebocytes. The procedure, abridged: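 Human SZ95 sebocytes were preincubated with compound for 30 min, then stimulated with 75 μM arachidonic acid for 48 h at 37 °C. Neutral lipids were stained with AdipoRed and read by fluorescence (ex 485/em 535). % inhibition was normalized between AA-stimulated and unstimulated cells.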

Experiment [2] relates to sebocytes. The following applies: Hunt D. et al. J Invest Dermatol. 2017; cited from earlier work.
Experiment [3] has as its system sebaceous gland activity. Particulars: Hunt D. et al. J Invest Dermatol. 2017; cited from earlier work.
The mark [4] stands for this setting: 75 μM arachidonic acid, AdipoRed, Table 2, finer classes for compounds with IC50 less than 250 nM.
[5] abbreviates: lipid synthesis induced by 75 μM arachidonic acid, AdipoRed fluorescence, Table 1.

The source of these data is patent publication US20210220328A1, “PYRROLE DERIVATIVES AS ACC INHIBITORS” (Almirall, S.A., priority 2017, published 2021).

The IC50 is the point on the concentration scale where inhibition reaches its midpoint.

For the compound `CCCCCCCCCCCOc1c[nH]c(C(=O)OC(C)OC(=O)OCCOC)c1F` (centres unmarked) [Example 106, 1-(((2-Methoxyethoxy)carbonyl)oxy)ethyl 3-fluoro-4-(undecyloxy)-1H-pyrrole-2-carboxylate], the results for the IC50 in experiment [1] (setting [4]) and in experiment [1] (setting [5]) were < 50 nM and < 250 nM, respectively.
Taken in the same sequence, the figures for `CCCCCCCCCCCOc1c[nH]c(C(=O)OC(C)OC(=O)OCCOCCOCC)c1F` (centres unmarked) [Example 107, 4-Oxo-3,5,8,11-tetraoxatridecan-2-yl 3-fluoro-4-(undecyloxy)-1H-pyrrole-2-carboxylate] were < 50 nM and < 250 nM.
Turning to `CCCCCCCCCCCCCc1c[nH]c(C(=O)OCC(F)(F)F)c1Cl` [Example 108, 2,2,2-Trifluoroethyl 3-chloro-4-tridecyl-1H-pyrrole-2-carboxylate], in experiment [1] (setting [5]), the IC50 was 250 to 1000 nM.
For `CCCCCCCCCCCCCc1c[nH]c(C(=O)OCCOCCOCC)c1Cl` [Example 109, 2-(2-Ethoxyethoxy)ethyl 3-chloro-4-tridecyl-1H-pyrrole-2-carboxylate], the IC50 in experiment [1] (setting [5]) is 250 to 1000 nM.
As to `CCCCCCCCCCCCCc1c[nH]c(C(=O)OC(C)OC(=O)OC(C)C)c1Cl` (centres unmarked) [Example 110, 1-((Isopropoxycarbonyl)oxy)ethyl 3-chloro-4-tridecyl-1H-pyrrole-2-carboxylate], the concentration for half-maximal inhibition (IC50) was 100 to 250 nM in experiment [1] (setting [4]) and < 250 nM in experiment [1] (setting [5]).
Regarding `CCCCCCCCCCCCCc1c[nH]c(C(=O)OC(C)OC(=O)OCCOC)c1Cl` (centres unmarked) [Example 111, 1-(((2-methoxyethoxy)carbonyl)oxy)ethyl 3-chloro-4-tridecyl-1H-pyrrole-2-carboxylate], the IC50 in experiment [1] (setting [4]) was 100 to 250 nM; in experiment [1] (setting [5]), < 250 nM.
As to `CCCCCCCCCCCCCc1c[nH]c(C(=O)OC(C)OC(=O)OCCOCCOCC)c1Cl` (centres unmarked) [Example 112, 4-Oxo-3,5,8,11-tetraoxatridecan-2-yl 3-chloro-4-tridecyl-1H-pyrrole-2-carboxylate], the figures for the half-maximal inhibitory concentration (IC50) in experiment [1] (setting [4]) and in experiment [1] (setting [5]) were 100 to 250 nM and < 250 nM, respectively.
The compound `CCCCCCCCCCCCc1cc(Cl)c(C(=O)OCC(F)(F)F)[nH]1` [Example 113, 2,2,2-Trifluoroethyl 3-chloro-5-dodecyl-1H-pyrrole-2-carboxylate] returned an IC50 in experiment [1] (setting [5]) of 1000 to 5000 nM.
In the case of `CCCCCCCCCCCCc1cc(Cl)c(C(=O)OCCOCCOCC)[nH]1` [Example 114, 2-(2-Ethoxyethoxy)ethyl 3-chloro-5-dodecyl-1H-pyrrole-2-carboxylate], the IC50 in experiment [1] (setting [5]) is 1000 to 5000 nM.
For `CCCCCCCCCCCCc1cc(Cl)c(C(=O)OC(C)OC(=O)OC(C)C)[nH]1` (centres unmarked) [Example 115, 1-((Isopropoxycarbonyl)oxy)ethyl 3-chloro-5-dodecyl-1H-pyrrole-2-carboxylate], the 50% inhibitory concentration (IC50) in experiment [1] (setting [4]) is 100 to 250 nM; in experiment [1] (setting [5]), < 250 nM.
With `CCCCCCCCCCCCc1cc(Cl)c(C(=O)OC(C)OC(=O)OCCOC)[nH]1` (centres unmarked) [Example 116, 1-(((2-Methoxyethoxy)carbonyl)oxy)ethyl 3-chloro-5-dodecyl-1H-pyrrole-2-carboxylate], the figures for the 50% inhibitory concentration (IC50) in experiment [1] (setting [4]) and in experiment [1] (setting [5]) were 50 to 100 nM and < 250 nM, respectively.
In the case of `CCCCCCCCCCCCc1cc(Cl)c(C(=O)OC(C)OC(=O)OCCOCCOCC)[nH]1` (centres unmarked) [Example 117, 4-Oxo-3,5,8,11-tetraoxatridecan-2-yl 3-chloro-5-dodecyl-1H-pyrrole-2-carboxylate], the results for the IC50 in experiment [1] (setting [4]) and in experiment [1] (setting [5]) were 100 to 250 nM and < 250 nM, respectively.
As for `CCCCCCCCCCCCc1cc(Cl)c(C(=O)OCC(O)CO)[nH]1` (centres unmarked) [Example 118, 2,3-Dihydroxypropyl 3-chloro-5-dodecyl-1H-pyrrole-2-carboxylate], the half-maximal inhibitory concentration (IC50) in experiment [1] (setting [5]) lay within 250 to 1000 nM.
Consider `CCCCCCCCCCCc1cc(F)c(C(=O)O)[nH]1` [Example 119, 3-Fluoro-5-undecyl-1H-pyrrole-2-carboxylic acid], for which the IC50 in experiment [1] (setting [4]) is 50 to 100 nM; in experiment [1] (setting [5]), < 250 nM.
With `CCCCCCCCCCCCCc1cc(F)c(C(=O)O)[nH]1` [Example 120, 3-Fluoro-5-tridecyl-1H-pyrrole-2-carboxylic acid], the half-inhibitory concentration (IC50) in experiment [1] (setting [4]) was < 50 nM; in experiment [1] (setting [5]) it was < 250 nM.
Take `CCCCCCCCCCCCCCc1cc(F)c(C(=O)O)[nH]1` [Example 121, 3-Fluoro-5-tetradecyl-1H-pyrrole-2-carboxylic acid]: the IC50 was < 50 nM in experiment [1] (setting [4]) and < 250 nM in experiment [1] (setting [5]).
Taken in the same sequence, the figures for `CCCCCCCCCCCCCCCc1cc(F)c(C(=O)O)[nH]1` [Example 122, 3-Fluoro-5-pentadecyl-1H-pyrrole-2-carboxylic acid] were 50 to 100 nM and < 250 nM.
Taken in the same sequence, the figures for `CCCCCCCCCCCCCCCCc1cc(F)c(C(=O)O)[nH]1` [Example 123, 3-Fluoro-5-hexadecyl-1H-pyrrole-2-carboxylic acid] were 50 to 100 nM and < 250 nM.
For `CCCCCCCCCCCCCCCCCc1cc(F)c(C(=O)O)[nH]1` [Example 124, 3-Fluoro-5-heptadecyl-1H-pyrrole-2-carboxylic acid], the 50% inhibitory concentration (IC50) in experiment [1] (setting [5]) was < 250 nM.
Same read-out and setting: to `CCCCCCCCCCCCCCCCCCc1cc(F)c(C(=O)O)[nH]1` [Example 125, 3-Fluoro-5-octadecyl-1H-pyrrole-2-carboxylic acid] belongs < 250 nM; to `CCCCCCCCCCCCCCCCCCCc1cc(F)c(C(=O)O)[nH]1` [Example 126, 3-Fluoro-5-nonadecyl-1H-pyrrole-2-carboxylic acid], < 250 nM.
Take `CCCCCCCCCCC(C)(C)Cc1cc(Cl)c(C(=O)O)[nH]1` [Example 127, 3-Chloro-5-(2,2-dimethyldodecyl)-1H-pyrrole-2-carboxylic acid]: the IC50 is < 50 nM in experiment [1] (setting [4]) and 250 to 1000 nM in experiment [1] (setting [5]).
With `CCCCCCCCCC(F)(F)CCc1cc(Cl)c(C(=O)O)[nH]1` [Example 128, 3-Chloro-5-(3,3-difluorododecyl)-1H-pyrrole-2-carboxylic acid], the IC50 in experiment [1] (setting [4]) was < 50 nM; in experiment [1] (setting [5]), 250 to 1000 nM.
In the case of `CCCCCCCCCCCCc1cc(C#N)c(C(=O)O)[nH]1` [Example 129, 3-Cyano-5-dodecyl-1H-pyrrole-2-carboxylic acid], the IC50 in experiment [1] (setting [5]) was 1000 to 5000 nM.
Turning to `CCCCCCCCCCCCc1cc(Cl)c(C(=O)O)n1C` [Example 130, 3-Chloro-5-dodecyl-1-methyl-1H-pyrrole-2-carboxylic acid], the figures for the IC50 in experiment [1] (setting [4]) and in experiment [1] (setting [5]) were 100 to 250 nM and > 5000 nM, respectively.
Consider `O=C(O)c1[nH]c(CCCCCCCCCCCCCCF)cc1F` [Example 131, 3-Fluoro-5-(14-fluorotetradecyl)-1H-pyrrole-2-carboxylic acid], for which the values for the IC50 in experiment [1] (setting [4]) and in experiment [1] (setting [5]) were 100 to 250 nM and < 250 nM, respectively.
For `CCCCCCCCCCCCCCCCc1c[nH]c(C(=O)O)c1F` [Example 132, 3-Fluoro-4-hexadecyl-1H-pyrrole-2-carboxylic acid], the IC50 in experiment [1] (setting [4]) is < 50 nM; in experiment [1] (setting [5]), < 250 nM.
For `CCCCCCCCCCCCCCOc1ccc(C(=O)OCC(=O)N(C)CC(=O)OCC)o1` [Olumacostat Glasaretil], in experiment [2], the “potency inhibiting sebum production by sebocytes” value is given as “low potency”. Moreover, the “activity in an in vivo model of sebaceous gland activity” value in experiment [3] is on record as “poor activity”.
